{
  "source": "patent US11959096B2",
  "about": "“Methods for selective inhibition of pluripotent stem cells” (THE MEDICAL COLLEGE OF WISCONSIN, INC., priority 2014, dated 2024)",
  "key": {"[1]": {"experiment": "SYTOX Green cell viability assay", "format": "cell-based, human", "settings": "human, hiPSC (DF6-9-9T) cells", "protocol": "(§1) In Vitro Toxicity Assays: Treatment with small molecules or glucose deprivation was initiated in hESC or hiPSC at 24 and 96 h post-plating and in vitro toxicity assays were performed at specified treatment endpoints 24-96 hours after treatment initiation. […] Neutral red assays for cell viability were performed as previously described. In vitro cell death was determined using SYTOX® Green nucleic acid stain (Life Technologies). Briefly, cells were incubated in 5 μM SYTOX® Green for 30 minutes at 37° C. in a humidified cell incubator with 5% CO2. Percent cell viability was determined by normalizing to replicate cells incubated with 120 μM digitonin (Sigma-Aldrich) and 5 μM SYTOX® Green. Imaging of cell viability was performed using Live/Dead® Viability/Cytotoxicity Kit, for mammalian cells (Life Technologies). Cells were stained for 20 minutes at room temperature with 4 μM Calcein AM to detect viable cells and 2 μM Ethidium Homodimer 1 to detect cells with compromised membranes. Representative images of alterations in cell morphology were acquired on confluent hPSC 24-72 hours after treatment initiation. Imaging was performed with a Nikon Ti-U inverted microscope."}, "[2]": {"test_system": "confluent hiPSC (DF6-9-9T)", "experiment": "Bright field imaging of cell morphology", "format": "cell-based, human", "protocol": "as §1"}, "H1 hESC colonies": {"test_system": "H1 hESC colonies", "experiment": "Elimination of hESC colonies grown on human fibroblast feeders (alkaline phosphatase staining, brightfield)", "format": "cell-based"}, "confluent hiPSC": {"test_system": "confluent hiPSC", "experiment": "Colony formation assay (alkaline phosphatase staining)", "format": "cell-based, human", "settings": "for colony formation: 24 hours treatment, no passaging, six days", "protocol": "The first iteration was adapted from previously described method, after 24 hours of treatment, hiPSC were detached with Accutase (StemCell Technologies), re-suspended in E8, passed though 12×75 mm tube with cell strainer cap (Falcon), and plated at 5e4 live cells per 2 cm^2. Media were changed every 48 hours and cells were cultured for six days, at which time staining for alkaline phosphatase was performed with leukocyte alkaline phosphatase kit (Sigma-Aldrich) as described and plates were visually inspected for phosphatase-positive colonies. This strategy represents the most common implementation of the colony formation assay. However, concerns regarding the cell death normally encountered during passaging prompted another approach for stricter assessment. In the second iteration, cells were treated for 24 hours, washed twice with 0.5 mL D-PBS, and media refreshed with E8. Thereafter, media were replaced daily for six days at which point staining for alkaline phosphatase activity was performed. […] Elimination of hiPSC from co-cultures with differentiated cells was performed with human fibroblasts and day 10 cardiomyocytes derived from hiPSC. hiPSC (DF6-9-9T) were plated at concentrations ranging from 100-10,000 live cells per well with human fibroblasts (1.75e5 cells) or day 10 differentiated cardiomyocytes (3.75e5 cells) in E8 and Y-27632 per 9.6 cm^2. […] Six days after plating, staining for alkaline phosphatase activity was performed. […] Imaging of wells was performed with a Sony Cyber-shot DSC-TX30 and individual colonies with a Nikon stereoscope."}, "[3]": {"test_system": "DF6-9-9T hiPSC-derived cardiomyocytes", "experiment": "Neutral red viability assay in hiPSC-derived cardiomyocytes", "format": "cell-based", "settings": "24 hour pulse treatment", "protocol": "as §1"}, "[4]": {"test_system": "day 10 cardiomyocytes derived from hiPSC (DF6-9-9T)", "experiment": "Characterization of cardiomyocytes after STF-31 (contractility, flow cytometry, immunofluorescence, qPCR)", "format": "cell-based, human", "protocol": "Quantitative-real time PCR for TNNI3, Troponin T2 (TNNT2), and Homeobox protein Nkx-2.5 (NKX2-5) was performed as previously described using Taqman® Assays […] Cells were then fixed with 4% paraformaldehyde, permeabilized with 0.2% Triton-X, incubated with primary antibody for Troponin T (TNNT2) (Abcam: ab8295) overnight at 4° C. Cells were then incubated in secondary antibody goat anti-mouse IgG1-Alexa 568 (Life Tech: A-21124) and nuclei were detected with Hoechst 33342 (Life Tech: H21492). Cells were imaged with a Nikon Ti-U inverted microscope and Nikon Eclipse 90i confocal microscope."}, "[5]": {"test_system": "DF6-9-9T hiPSC in co-culture with day 10 cardiomyocytes or human fibroblasts", "experiment": "Colony formation assay in co-cultures of hiPSC with differentiated cells", "format": "cell-based", "settings": "5 μM", "protocol": "The first iteration was adapted from previously described method, after 24 hours of treatment, hiPSC were detached with Accutase (StemCell Technologies), re-suspended in E8, passed though 12×75 mm tube with cell strainer cap (Falcon), and plated at 5e4 live cells per 2 cm^2. Media were changed every 48 hours and cells were cultured for six days, at which time staining for alkaline phosphatase was performed with leukocyte alkaline phosphatase kit (Sigma-Aldrich) as described and plates were visually inspected for phosphatase-positive colonies. This strategy represents the most common implementation of the colony formation assay. However, concerns regarding the cell death normally encountered during passaging prompted another approach for stricter assessment. In the second iteration, cells were treated for 24 hours, washed twice with 0.5 mL D-PBS, and media refreshed with E8. Thereafter, media were replaced daily for six days at which point staining for alkaline phosphatase activity was performed. […] Elimination of hiPSC from co-cultures with differentiated cells was performed with human fibroblasts and day 10 cardiomyocytes derived from hiPSC. hiPSC (DF6-9-9T) were plated at concentrations ranging from 100-10,000 live cells per well with human fibroblasts (1.75e5 cells) or day 10 differentiated cardiomyocytes (3.75e5 cells) in E8 and Y-27632 per 9.6 cm^2. […]"}, "hiPSC": {"test_system": "hiPSC", "experiment": "Extracellular flux analysis (ECAR, OCR)", "format": "cell-based, human", "protocol": "Extracellular Flux Analysis: hiPSC were plated at 6e4 cells per well on specialized microplate (Seahorse Bioscience) as previously described with several exceptions. Extracellular flux analysis was performed on hiPSC 48 hours post-plating using Seahorse Bioscience XF24 Analyzer. […] The microplate was equilibrated in non-CO2 incubator for 1.5 h, and analyzed for 16 h in Seahorse Bioscience XF24 Analyzer. Assay medium consists of basal E8 reagents with the following exceptions: basal DMEM F-12 without phenol red (Gibco), no sodium bicarbonate, and 2.5 mM GlutaMAX™ (Gibco) and 15 mM Hepes (Gibco). Assay medium was adjusted to pH 7.4 at 37° C. prior to use. Extracellular acidification rate (ECAR) and basal oxygen consumption rate (OCR) were collected approximately every 60 minutes. Treatments were normalized to baseline media control value and are represented as average of thee biological replicates."}, "sub-confluent hiPSC": {"test_system": "sub-confluent hiPSC", "experiment": "Immunoblot analysis of p-AMPK, AMPK, cleaved caspase-3 and -9", "format": "cell-based, human", "settings": "2.5 μM STF-31, 30 μM WZB117", "protocol": "Immunoblot Analysis: Non-adherent cells were collected by centrifugation, adherent cells were washed once with d-PBS and lysed in Laemmli buffer, combined with non-adherent cell pellet, and heated at 95° C. for 5 minutes. Protein concentration was measured using the Qubit protein assay (Life Technologies). 25 μg of total protein was separated by SDS-PAGE, transferred to nitrocellulose membrane (GE Healthcare Life Sciences) and blocked according to the manufacturer's instructions. Membranes were incubated overnight at 4° C. with the following dilutions of primary antibodies: rabbit anti-cleaved caspase-3 (1:500), rabbit anti-caspase-9 (1:1000), rabbit anti-phospho-AMPK (1:1000), and rabbit anti-AMPK (1:1,000) from Cell Signaling Technology, and mouse anti-GAPDH (1:10,000) from Life Technologies. Membranes were then incubated with secondary antibodies for 45 minutes at the following concentrations: donkey anti-mouse-horseradish peroxidase (1:5,000) and donkey anti-rabbit-horseradish peroxidase (1:7,000) from Jackson Immunoresearch Laboratories, Inc., followed by detection using enhanced chemiluminescence."}, "human fibroblasts": {"test_system": "human fibroblasts", "settings": "treatment time extended to 72 hours; previous report [19]; cited from earlier work"}, "[6]": {"settings": "DMSO; cited from earlier work"}, "[7]": {"settings": "5 μM 24 hour pulse, 72 hours after treatment initiation"}},
  "data": [
    {"smiles": "CC(C)(C)c1ccc(S(=O)(=O)NCc2ccc(C(=O)Nc3cccnc3)cc2)cc1", "note": "[STF-31, 4-[[[[4-(1,1-Dimethylethyl)phenyl]sulfonyl]amino]methyl]-N-3-pyridinyl-benzamide]", "values": [
      {"measurement": "viability at 72 h, 2.5 μM", "setting": "[1]", "value": 10, "unit": "%"},
      {"measurement": "morphology of hiPSC", "setting": "[2]; 2.5 μM STF-31, 24 hour incubation", "value": "did not modify the morphology"},
      {"measurement": "morphology of hiPSC", "setting": "[2]; 2.5 μM STF-31, 48 hour treatment", "value": "patches of diminished, non-adherent cells and reduction in overall cell number"},
      {"measurement": "morphology of hiPSC", "setting": "[2]; 72 hours, 2.5 μM STF-31, 30 μM WZB117, 20 μM PluriSIn", "value": "highly toxic"},
      {"measurement": "colonies by alkaline phosphatase staining", "setting": "H1 hESC colonies; after 96 hours of treatment, 2.5 μM", "value": "Colonies were not detected"},
      {"measurement": "time at which toxicity occurs", "setting": "H1 hESC colonies; hESC colonies on human fibroblast feeder cells, 2.5 μM", "value": "48 to 72", "unit": "h"},
      {"measurement": "colony growth after passaging", "setting": "H1 hESC colonies; passaged 96 hours after treatment initiation, cultured additional 72 hours", "value": "No colony growth or alkaline phosphatase activity was detected"},
      {"measurement": "formation of alkaline phosphatase-positive colonies", "setting": "confluent hiPSC; 24 hour pulse, cells passaged, cultured 6 days", "value": "prevented the formation of alkaline phosphatase-positive colonies"},
      {"measurement": "colony formation", "setting": "confluent hiPSC; 2.5 μM STF-31", "value": "a limited number of colonies formed"},
      {"measurement": "colony formation", "setting": "confluent hiPSC; 5 μM STF-31", "value": "no colonies were observed"},
      {"measurement": "LD50", "setting": "[3]", "value": 40, "unit": "µM"},
      {"measurement": "LD50 cardiomyocytes relative to hiPSC", "setting": "[3]", "value": 22, "unit": "fold"},
      {"measurement": "expression of cardiac genes (q-PCR)", "setting": "[4]; 5 μM 24 hour pulse, 24-72 hours after initiation", "value": "not significantly altered"},
      {"measurement": "abundance of cardiac markers TNNI3 and IRX4 (flow cytometry)", "setting": "[4]; [7]", "value": "did not affect abundance"},
      {"measurement": "structural organization of TNNT2", "setting": "[4]; [7]", "value": "maintained comparable structural organization"},
      {"measurement": "cardiomyocyte spontaneous contractility", "setting": "[4]; 5 μM for 24 hours, day 10 cardiomyocytes", "value": "did not affect cardiomyocyte spontaneous contractility"},
      {"measurement": "contractions, protein and mRNA levels of cardiomyocyte markers, structural features compared with controls", "setting": "[4]; treated on day 5 and day 10 of differentiation", "value": "indistinguishable from controls"},
      {"measurement": "elimination of hiPSC colonies from co-culture", "setting": "[5]; 24-hour pulse, day 10 cardiomyocytes", "value": "elimination of a majority of hiPSC colonies"},
      {"measurement": "elimination of hiPSC colonies from co-culture", "setting": "[5]; 48 hour pulse, day 10 cardiomyocytes or human fibroblasts", "value": "completely eliminate hiPSC"},
      {"measurement": "delay of decrease in ECAR compared to inhibitors of glucose oxidation", "setting": "hiPSC; 2.5 μM STF-31", "value": "up to 15 hours"},
      {"measurement": "time before reductions in OCR", "setting": "hiPSC; 2.5 μM STF-31, 30 μM WZB117", "value": 15, "unit": "h"},
      {"measurement": "time at which cleaved caspase-3 and -9 are observed", "setting": "sub-confluent hiPSC", "value": "significantly later"},
      {"measurement": "time at which p-AMPK is detected/increased", "setting": "sub-confluent hiPSC; post-treatment", "value": 24, "unit": "h"},
      {"measurement": "cell viability", "setting": "human fibroblasts", "value": "did not result in a decrease in cell viability"},
      {"measurement": "solubility", "setting": "[6]", "value": "soluble in DMSO"}
    ]}
  ]
}
